PubChem BioAssay AID330 (DTP/NCI, 2004)
Where “and” joins values, the source holds several entries; their conditions need not be identical. Equal values may be shown once. Toxic doses and inconclusive results are not listed. Rule for the calls: active = survival T/C of 150% or more; inactive = T/C below 125% in these data.

Test system: P388 leukemia ip, CD2F1 mice, survival T/C
Test: NCI In Vivo Anticancer Drug Screen. Data for tumor model P388 Leukemia (intraperitoneal) in CD2F1 (CDF1) mice
Conditions: endpoint: median survival time, higher = longer survival
In short: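 Mice carrying the transplanted tumor received test compound or vehicle. Survival was recorded in each group, and the value is the treated-group measurement divided by that of the vehicle-treated control group.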

[1] = dose: 50.0 mg/kg/injection, schedule: Q01DX005 (ip), vehicle: Klucel (hydroxypropylcellulose) (HPC)
[2] = dose: 100.0 mg/kg/injection, schedule: Q01DX005 (ip), vehicle: Klucel (hydroxypropylcellulose) (HPC)
[3] = dose: 200.0 mg/kg/injection, schedule: Q01DX005 (ip), vehicle: Klucel (hydroxypropylcellulose) (HPC)
[4] = dose: 50.0 mg/kg/injection, schedule: Q01DX009 (ip), vehicle: saline with Tween-80
[5] = dose: 100.0 mg/kg/injection, schedule: Q01DX009 (ip), vehicle: saline with Tween-80
[6] = dose: 12.5 mg/kg/injection, schedule: Q01DX005 (ip), vehicle: Klucel (hydroxypropylcellulose) (HPC)
[7] = dose: 25.0 mg/kg/injection, schedule: Q01DX005 (ip), vehicle: Klucel (hydroxypropylcellulose) (HPC)
[8] = dose: 200.0 mg/kg/injection, schedule: Q01DX009 (ip), vehicle: saline with Tween-80

Measured: T/C

O=C1NN(C(=O)c2ccccc2)C(c2ccccc2[N+](=O)[O-])c2c1c1ccccc1n2C(=O)c1ccccc1 (configuration not stated)
inactive: [1] 97 % of control | [2] 95 % of control | [3] 88 % of control

OCc1c(Cl)nc2sccn12
inactive: dose: 25.0 mg/kg/injection, schedule: Q01DX001 (ip), vehicle: Klucel (hydroxypropylcellulose) (HPC) 109 % of control | dose: 50.0 mg/kg/injection, schedule: Q01DX001 (ip), vehicle: Klucel (hydroxypropylcellulose) (HPC) 105 % of control | dose: 100.0 mg/kg/injection, schedule: Q01DX001 (ip), vehicle: Klucel (hydroxypropylcellulose) (HPC) 93 % of control and 97 % of control | dose: 400.0 mg/kg/injection, schedule: Q01DX001 (ip), vehicle: Klucel (hydroxypropylcellulose) (HPC) 92 % of control

CCOC(=O)CNC(=O)C(CSSCC(NC(=O)OCc1ccccc1)C(=O)O)NC(=O)OCc1ccccc1 (configuration not stated)
inactive: [1] 97 % of control | [2] 97 % of control | [3] 99 % of control

CN(C#N)CCc1ccccc1
inactive: [4] 100 % of control | [5] 96 % of control

S=c1nc[nH]c2c1ncn2C1CCCO1 (configuration not stated)
inactive: dose: 100.0 mg/kg/injection, schedule: Q04DX003 (ip), vehicle: saline with Tween-80 100 % of control | dose: 200.0 mg/kg/injection, schedule: Q04DX003 (ip), vehicle: saline with Tween-80 118 % of control

Cc1c2cccc(Sc3ccccc3)c2c2c3c(cccc13)[S+](c1ccccc1)C2 (configuration not stated)
inactive: dose: 6.25 mg/kg/injection, schedule: Q01DX009 (ip), vehicle: saline with Tween-80 113 % of control | dose: 12.5 mg/kg/injection, schedule: Q01DX009 (ip), vehicle: saline with Tween-80 115 % of control

Cc1noc(NS(=O)(=O)c2ccc(NC(=O)NCCCl)cc2)c1C
inactive: dose: 30.0 mg/kg/injection, schedule: Q01DX005 (ip), vehicle: Klucel (hydroxypropylcellulose) (HPC) 102 % of control | dose: 60.0 mg/kg/injection, schedule: Q01DX005 (ip), vehicle: Klucel (hydroxypropylcellulose) (HPC) 98 % of control | dose: 120.0 mg/kg/injection, schedule: Q01DX005 (ip), vehicle: Klucel (hydroxypropylcellulose) (HPC) 95 % of control | dose: 240.0 mg/kg/injection, schedule: Q01DX005 (ip), vehicle: Klucel (hydroxypropylcellulose) (HPC) 97 % of control

COC(=O)Cc1nc2c(=O)[nH]c(N)nc2[nH]c1=O
inactive: [6] 95 % of control | [7] 96 % of control | [1] 102 % of control and 104 % of control

CSC1=Nc2cc3c(cc2C(=O)N2C[C@H](O)CC12)OCO3 (some centres not stated)
inactive: dose: 50.0 mg/kg/injection, schedule: Q01DX005 (ip), vehicle: saline with Tween-80 108 % of control | dose: 100.0 mg/kg/injection, schedule: Q01DX005 (ip), vehicle: saline with Tween-80 102 % of control | dose: 200.0 mg/kg/injection, schedule: Q01DX005 (ip), vehicle: saline with Tween-80 94 % of control

COc1ccc2c(c1)C(=O)OC2
inactive: [4] 102 % of control | [5] 101 % of control | [8] 99 % of control

[Cl][Ru][Cl].[NH-]CC[NH-].[NH-]CC[NH-]
active: dose: 50.0 mg/kg/injection, schedule: Q04DX003 (ip), vehicle: water 155 % of control
inactive: dose: 12.5 mg/kg/injection, schedule: Q04DX003 (ip), vehicle: water 111 % of control and 123 % of control and 124 % of control | dose: 25.0 mg/kg/injection, schedule: Q04DX003 (ip), vehicle: water 107 % of control

COC(=O)C1C2CCCN2OC1(C)CO (configuration not stated)
active: dose: 60.0 mg/kg/injection, schedule: Q01DX005 (ip), vehicle: saline 203 % of control
inactive: dose: 7.5 mg/kg/injection, schedule: Q01DX005 (ip), vehicle: saline 100 % of control | dose: 15.0 mg/kg/injection, schedule: Q01DX005 (ip), vehicle: saline 106 % of control | dose: 120.0 mg/kg/injection, schedule: Q01DX005 (ip), vehicle: saline 96 % of control | dose: 240.0 mg/kg/injection, schedule: Q01DX005 (ip), vehicle: saline 99 % of control

C[CH2][Sn]([CH2]C)[CH2]C.C[CH2][Sn]([CH2]C)[CH2]C
inactive: [6] 105 % of control and 97 % of control | [7] 101 % of control and 114 % of control | [1] 110 % of control and 97 % of control | [2] 113 % of control

O=C(Nc1ccccc1F)N(CCO)C1CCCCC1
inactive: dose: 60.0 mg/kg/injection, schedule: Q01DX005 (ip), vehicle: saline with Tween-80 93 % of control | dose: 120.0 mg/kg/injection, schedule: Q01DX005 (ip), vehicle: saline with Tween-80 93 % of control | dose: 240.0 mg/kg/injection, schedule: Q01DX005 (ip), vehicle: saline with Tween-80 98 % of control

NC(Cc1ccccc1I)c1nn[nH]n1 (configuration not stated)
inactive: dose: 25.0 mg/kg/injection, schedule: Q01DX009 (ip), vehicle: saline with Tween-80 107 % of control | [4] 102 % of control and 105 % of control and 111 % of control | [5] 98 % of control and 100 % of control and 95 % of control | [8] 110 % of control and 97 % of control | dose: 400.0 mg/kg/injection, schedule: Q01DX009 (ip), vehicle: saline with Tween-80 100 % of control and 96 % of control

COc1ccc2c3c([nH]c2c1)C(C)N(S(=O)(=O)c1ccccc1)CC3 (configuration not stated)
inactive: [6] 98 % of control | [7] 92 % of control | [1] 98 % of control | [2] 98 % of control | [3] 93 % of control

CSc1ccc(C(C)=O)cc1
inactive: dose: 50.0 mg/kg/injection, schedule: Q01DX009 (ip), vehicle: saline + alcohol 100 % of control | dose: 100.0 mg/kg/injection, schedule: Q01DX009 (ip), vehicle: saline + alcohol 102 % of control | dose: 200.0 mg/kg/injection, schedule: Q01DX009 (ip), vehicle: saline + alcohol 100 % of control | dose: 400.0 mg/kg/injection, schedule: Q01DX009 (ip), vehicle: saline + alcohol 104 % of control

CNC(=O)N(C)CN(C)C(=O)NC
inactive: dose: 50.0 mg/kg/injection, schedule: Q01DX009 (ip), vehicle: Klucel (hydroxypropylcellulose) (HPC) 100 % of control | dose: 100.0 mg/kg/injection, schedule: Q01DX009 (ip), vehicle: Klucel (hydroxypropylcellulose) (HPC) 106 % of control | dose: 200.0 mg/kg/injection, schedule: Q01DX009 (ip), vehicle: Klucel (hydroxypropylcellulose) (HPC) 107 % of control

Cn1c(=O)[nH]c(=O)c2nc(-c3ccc(Cl)cc3)cnc21
inactive: dose: 100.0 mg/kg/injection, schedule: Q04DX002 (ip), vehicle: saline with Tween-80 94 % of control | dose: 200.0 mg/kg/injection, schedule: Q04DX002 (ip), vehicle: saline with Tween-80 97 % of control | dose: 400.0 mg/kg/injection, schedule: Q04DX002 (ip), vehicle: saline with Tween-80 97 % of control

CC[N+](C)(CC)CCSC1=Nc2ccccc2N=C(c2ccc(Sc3ccccc3)cc2)C1
inactive: dose: 1.56 mg/kg/injection, schedule: Q01DX009 (ip), vehicle: Klucel (hydroxypropylcellulose) (HPC) 117 % of control | dose: 3.12 mg/kg/injection, schedule: Q01DX009 (ip), vehicle: Klucel (hydroxypropylcellulose) (HPC) 99 % of control | dose: 6.25 mg/kg/injection, schedule: Q01DX009 (ip), vehicle: Klucel (hydroxypropylcellulose) (HPC) 106 % of control and 108 % of control

CC1CCC2CCCCN2CO1 (configuration not stated)
inactive: [7] 105 % of control | [1] 101 % of control and 122 % of control and 96 % of control | [2] 101 % of control and 109 % of control and 112 % of control | [3] 104 % of control and 114 % of control and 118 % of control

COc1ccc2c3c([nH]c2c1N)C(C)NCC3 (configuration not stated)
inactive: [6] 102 % of control | [7] 96 % of control | [1] 104 % of control | [2] 104 % of control

CCC1=CCC2C(=O)C3CC(CC)=CCC3C(=O)C2C1 (configuration not stated)
inactive: [6] 97 % of control | [7] 92 % of control | [1] 87 % of control and 88 % of control

CC(C#N)(S(C)(=O)=O)S(=O)(=O)c1ccccc1 (configuration not stated)
inactive: dose: 1.56 mg/kg/injection, schedule: Q01DX001 (ip), vehicle: saline with Tween-80 96 % of control | dose: 3.12 mg/kg/injection, schedule: Q01DX001 (ip), vehicle: saline with Tween-80 99 % of control | dose: 6.25 mg/kg/injection, schedule: Q01DX001 (ip), vehicle: saline with Tween-80 102 % of control

CCOP(=O)(OCC)c1nc(Cl)nc(Cl)c1SC(F)(F)F
inactive: dose: 3.75 mg/kg/injection, schedule: Q01DX005 (ip), vehicle: saline with Tween-80 113 % of control | dose: 7.5 mg/kg/injection, schedule: Q01DX005 (ip), vehicle: saline with Tween-80 104 % of control | dose: 15.0 mg/kg/injection, schedule: Q01DX005 (ip), vehicle: saline with Tween-80 100 % of control

O=C(O)C1CC(c2ccccc2)=NN1c1ccccc1 (configuration not stated)
inactive: dose: 12.5 mg/kg/injection, schedule: Q01DX009 (ip), vehicle: water 99 % of control | dose: 25.0 mg/kg/injection, schedule: Q01DX009 (ip), vehicle: water 98 % of control | dose: 50.0 mg/kg/injection, schedule: Q01DX009 (ip), vehicle: water 103 % of control | dose: 88.0 mg/kg/injection, schedule: Q01DX009 (ip), vehicle: water 112 % of control and 120 % of control | dose: 100.0 mg/kg/injection, schedule: Q01DX009 (ip), vehicle: water 109 % of control | dose: 133.0 mg/kg/injection, schedule: Q01DX009 (ip), vehicle: water 119 % of control and 124 % of control | dose: 200.0 mg/kg/injection, schedule: Q01DX009 (ip), vehicle: water 123 % of control | dose: 300.0 mg/kg/injection, schedule: Q01DX009 (ip), vehicle: water 122 % of control
